Data on 2 compounds can be found in patent US10632135B2, “Orally available compounds, a process for preparing the same and their uses as anti-adhesive drugs for treating E. coli induced inflammatory bowel diseases such as crohn's disease” (CENTRE NATIONAL DE LA RECHERCHE SCIENTIFIQUE, priority 2014, dated 2020).

The structures appear in SMILES notation.

Data set [1] relates to HUV-EC-C, CCD-18Co, MRC-5 and PWR-1E normal cell lines. In kind it is cell-based, Human. The method, then: Compounds 10 and 22′ were extemporaneously dissolved at 100 mM in water to obtain a stock solution.
The final concentrations of compounds 10 and 22′ were 100 nM, 1 μM, 10 μM, 100 μM and 1 mM within wells.
The 4 cell lines were plated at optimal density per well in 96-well plates. Plates were incubated at 37° C. for 24 hours before treatment, in drug-free culture medium.
Cell lines were then incubated for 96 hours at 37° C. under 5% CO2 with the 5 concentrations of compounds 10 or 22′ in 1:10 dilution steps. Each concentration was done in triplicate. Control cells were treated with vehicle alone (water).
The dose response for index of cytotoxicity (IC) is expressed as following: […]
IC50 represents the drug concentration required to obtain 50% of cellular cytotoxicity. The
IC50 determination values were calculated from semi-log curves.

Data set [2] has as its system Adherent-Invasive E. coli strain LF82 adhesion to intestinal epithelial cells T84. The data set can be described thus: Adhesion of Adherent-Invasive E. coli LF82 to intestinal epithelial cells T84 in presence of monovalent compounds (pre-, co- and post-incubation). The data set is classed as cell-based. The method, then:
E. coli strain LF82 was isolated from a chronic ileal lesion of a patient with Crohn's disease (CD). Bacteria were grown routinely in Luria-Bertani (LB) broth overnight at 37° C. Intestinal epithelial cells T84 derived from colonic adenocarcinoma were maintained in an atmosphere containing 5% CO2 at 37° C. in DMEM/F12 (50/50) medium supplemented with 10% (v/v) heat-inactivated fetal calf serum (FCS), 1% L-glutamine, 100 000 U·l^−1 penicillin, 100 mg·l^−1 streptomycin, 25 μg·l^−1 amphotericin B.
T84 were seeded in 48-well plates at a concentration of 1.5×10^5 cells per well and grown for 48 h. AIEC LF82 bacteria were incubated 1 h with monovalent compounds prior the cell infection (pre-incubation protocol) or they were added simultaneously onto the cells (co-incubation protocol) in complete medium without antibiotics, containing heat inactivated fetal calf serum (FCS). Monovalent compound 10 was tested at a dose of 100; 10; 1 (and 0.1) μM, compound 5 was tested at a dose of 500; 100; 10 and 1 μM and D-mannose was tested at a dose of 10 000; 1 000; 100 or 10 μM. Cells were infected with AIEC LF82 bacteria at a multiplicity of infection (MOI) of 10 bacteria per cell for 3 h at 37° C.
For the post-incubation protocol, monovalent compounds (same doses than in the pre- and co-incubation assays) were incubated with cells for 3 h after bacterial infection. A washing step was realized before this post-incubation to eliminate non-adherent bacteria.
Monolayers were washed in phosphate-buffered saline (PBS; pH 7.2) and cells were then lysed with 1% Triton X-100 in deionized water. […] Results were expressed as percentages of residual adhesion, considering adhesion level of AIEC LF82 without mannosides treatment as 100%.
D-mannose, compounds 5 and 10 were assessed as putative inhibitors to compete the interaction of CEACAM6 expressed by T84 intestinal epithelial cells with the adhesin FimH of AIEC bacteria following three different protocols: pre-, co- and post-incubation experiments (FIG. 1).

Consider `CC(=O)O[C@@]12CO[C@@H]1C[C@H](O)[C@@]1(C)C(=O)[C@H](O)C3=C(C)[C@@H](OC(=O)[C@H](O)[C@@H](NC(=O)OC(C)(C)C)c4ccccc4)C[C@@](O)([C@@H](OC(=O)c4ccccc4)[C@H]21)C3(C)C` [Docetaxel], for which, in data set [1], the “cytotoxicity values of the control compound” value is recorded as “consistent with known values of inherent toxicity”.
`O=C[C@@H](O)[C@@H](O)[C@H](O)[C@H](O)CO` [D-mannose]: in data set [2] (co-incubation protocol, LF82 MOI 10, 3 h, T84 cells), the “concentration at which a significant decrease in the bacterial adhesion level was obtained” value was 1 000 μM. Moreover, the “dose at which adhesion was decreased” value in data set [2] (post-incubation protocol) worked out at 10 mM. Also, the “concentration showing a significant inhibitory effect on the bacterial adhesion” value in data set [2] (pre-incubation protocol (bacteria incubated 1 h with compound before infection)) is 100 µM.
